≈ marks a conversion by molar mass, not a printed value. Where only a bound is given, the exact number is not on record here.

For orientation: kinetic solubility means the concentration staying in solution when a stock, usually in DMSO, is diluted into the medium.

For the data set the following is noted: buffer; pH 7.4; 200.0 µM.
`O=C(c1ccc(Cl)c(Cl)c1)N1CCN(c2ccccn2)CC1` returned a solubility (kinetic) of 40.4 µg/mL (≈ 120 µM). Take `Cc1ccc(NC(=O)NCc2cccnc2)cc1`: the solubility (kinetic) is more than 36.2 µg/mL. The figure for `Cc1ccsc1C(=O)OCC(=O)NC1CCCC1` is more than 40.1 µg/mL; for `O=C(Nc1ccc(Cl)cc1)c1cncs1` it is more than 35.8 µg/mL.

The molecule `CS(=O)(=O)c1ccc2nc(NC(=O)Nc3ccccc3F)sc2c1` returned a kinetic solubility of 0.8 µg/mL (≈ 2.19 µM).

Turning to `Cc1cc(C(=O)CN2C(=O)C(=O)N(CCC3=CCCCC3)C2=O)c(C)n1C`, the solubility (kinetic) was found to be 11.5 µg/mL (≈ 31 µM). Compared with the last molecule, the solubility kinetic is about 14-fold higher. Molecule `N/C(=N\O)c1ccccc1N1CCCCC1` returned a solubility (kinetic) of 29.9 µg/mL (≈ 136 µM). In turn, `COc1ccc(CN2CCN(CC3CC3)CC2CCO)cc1C` (stereo not drawn) showed a kinetic solubility of more than 47.8 µg/mL. The figure for `CC(Cc1c[nH]c2ccccc12)NC(N)=O` (stereo not drawn) is more than 32.6 µg/mL; for `O=C(Oc1cccc(Cl)c1)N1CCOCC1` it is 34.8 µg/mL (≈ 144 µM). `COc1ccc(N2C(=O)CCC2(C(N)=O)c2ccccc2)cc1` (stereo not drawn) registered a solubility (kinetic) of more than 46.6 µg/mL.

With `O=C(/C=C/c1ccccc1)OCC(=O)N1CCCC1`, the kinetic solubility was more than 38.9 µg/mL.

`O=C1CCN2C=Nc3cccc4ccc1c2c34` gave a solubility (kinetic) of 33.2 µg/mL (≈ 149 µM). In turn, `Cc1ccc(NC(=O)NCCCCc2ccccc2)cc1` registered a solubility (kinetic) of less than 0.3 µg/mL. In turn, `N#C/C(=C\c1ccc(N2CCCCC2)o1)C(N)=O` returned a kinetic solubility of more than 36.8 µg/mL.

Turning to `COc1cc(Cl)cc(/C=C/c2ccc3cccc(O)c3n2)c1OC`, the solubility (kinetic) was less than 0.7 µg/mL. The figure for `O=C(O/N=C1\CCS(=O)(=O)c2sccc21)c1ccc(F)cc1` is 1.2 µg/mL (≈ 3.54 µM); for `O=C(NC1CCCN(CCc2ccccc2)C1)c1c[nH]c2ccccc12` (stereo not drawn) it is 49.3 µg/mL (≈ 142 µM); for `CC(=O)c1ccc(Sc2ccccc2)c([N+](=O)[O-])c1` it is 3.1 µg/mL (≈ 11.3 µM). The value for `Cc1ccc(CNC(=O)C2CCC(=O)N2C(C)C)cc1` (stereo not drawn) was more than 41.2 µg/mL; that for `NC(N)=Nc1nc2cc([N+](=O)[O-])ccc2o1` was 6.4 µg/mL (≈ 28.9 µM); that for `O=C(COc1ccc(Cl)cc1)NC1CC1` was more than 33.9 µg/mL.

As for `O=C(Cc1ccc(F)cc1)NCC1CCCO1` (stereo not drawn), the solubility (kinetic) is more than 35.6 µg/mL. The figure for `O=C(COC(=O)C1(c2cccc(F)c2)CCCC1)NCc1cccs1` is 16.2 µg/mL (≈ 44.8 µM). As for `Cc1ccc(C2=CSC3=NS(=O)(=O)CCN23)cc1`, the kinetic solubility was more than 42.1 µg/mL. The value for `CCc1ccc(NC(=O)c2cc(Br)ccc2Br)cc1` was less than 0.8 µg/mL; that for `O=C1Nc2ccccc2/C1=C/c1ccccc1Cl` was 3.2 µg/mL (≈ 12.5 µM); that for `Cc1cc(C(=O)N2CCN(c3ccc([N+](=O)[O-])cc3)CC2)n[nH]1` was more than 47.3 µg/mL.

Turning to `NC(=O)COC(=O)c1cc(=O)[nH]c2ccccc12`, the kinetic solubility is more than 36.9 µg/mL.

In turn, `Cc1ccc(C)c(C(=O)CN2C(=O)c3ccccc3C2=O)c1` registered a kinetic solubility of 0.9 µg/mL (≈ 3.07 µM). For `CCCN(CC1CC1)C(=S)Nc1ccc(C(C)=O)cc1`, the kinetic solubility is more than 43.6 µg/mL. The figure for `O=C(NC1CCCN(CCc2ccccc2)C1)c1c(F)cccc1F` (stereo not drawn) is more than 51.7 µg/mL; for `O=C1CCCC2=C1C(c1ccncc1)n1c(nc3ccccc31)N2` (stereo not drawn) it is 6.7 µg/mL (≈ 21.2 µM); for `O=C(CCCC(=O)c1ccccc1)Nc1ccc(O)cc1` it is more than 42.5 µg/mL. The value for `Cc1ccc(C23CC4CC(CC(C(=O)NCC(=O)O)(C4)C2)C3)cc1` was more than 49.1 µg/mL; that for `Cc1ccc(Cl)c(NC(=O)COC(=O)c2cc[n+]([O-])cc2)c1Cl` was more than 53.3 µg/mL. The figure for `CCc1noc(C)c1C(=O)Nc1nc2c(C)cccc2s1` is 8.6 µg/mL (≈ 28.5 µM). The molecule `COc1cc2c(cc1OC)CN(CC(=O)Nc1ccc(F)cc1)CC2` returned a solubility (kinetic) of 39 µg/mL (≈ 113 µM). As for `Nc1c(N=O)c(=O)[nH]c(=O)n1-c1ccccc1`, the solubility (kinetic) is more than 34.8 µg/mL. Molecule `CCCc1nc2oc3ccccc3c(=O)c2c(=O)n1-c1ccc(C)cc1` displayed a solubility (kinetic) of 39.8 µg/mL (≈ 115 µM).

Take `O=C1CCC(=O)N1OCCOc1ccc(Cl)c2ccccc12`: the solubility (kinetic) turned out to be 5.3 µg/mL (≈ 16.6 µM). The figure for `Cc1ccc(F)cc1NC(=O)CCOc1ccccc1` is 8.3 µg/mL (≈ 30.4 µM); for `COc1ccc(NC(=O)C2CCOC2=O)cc1` (stereo not drawn) it is more than 35.3 µg/mL.

Regarding `Cc1nc([N+](=O)[O-])cn1CC(=O)c1ccc(F)cc1`, the kinetic solubility was more than 39.5 µg/mL. The value for `CCc1cc(=O)[nH]c(SCc2cccc3ccccc23)n1` was 2.8 µg/mL (≈ 9.45 µM); that for `COc1ccccc1Nc1nc(-c2cccnc2)cs1` was 1 µg/mL (≈ 3.53 µM); that for `O=S(=O)(Nc1ccccc1F)c1cccc(NC(=S)NCCN2CCOCC2)c1` was 51.6 µg/mL (≈ 118 µM).

`Cc1cc(CNC(=O)COC(=O)C2CC3CCCC(C2)C3=O)cc(C)c1O` (stereo not drawn) gave a solubility (kinetic) of more than 56 µg/mL. The figure for `O=C(Nc1cc(Cl)ccc1Cl)C1CCCO1` (stereo not drawn) is 28.9 µg/mL (≈ 111 µM); for `O=C(COc1ccccc1)NS(=O)(=O)c1ccc(Cl)cc1` it is more than 48.9 µg/mL; for `Cc1ccc(C(=O)OCC(=O)N2CCOCC2)c(C)c1` it is 34 µg/mL (≈ 123 µM).

In turn, `O=C1/C(=C/c2cccc(O)c2)SC(=S)N1CC1CCCO1` (stereo not drawn) showed a kinetic solubility of less than 0.7 µg/mL. The value for `Cc1cc(C(C)(C)C)cc(S(=O)(=O)Nc2ccc(C(=O)O)cc2)c1C` was 40.8 µg/mL (≈ 113 µM).
